Assay results: patent US20170071903A1, “USE OF ERIBULIN AND MTOR INHIBITORS AS COMBINATION THERAPY FOR THE TREATMENT OF CANCER” (Eisai R&D Management Co., Ltd., priority 2014, published 2017)
Counter-ions that a name gives are not always drawn. Like-named read-outs stand apart in the source and are kept apart here.

Experiments:
[1] = Source text: No consumable enrichment was provided. […] Cages were changed twice weekly.
All treatments were initiated on Day 10.

[2] = tested on: MX-1 human mammary tumor xenografts; assay: Growth of subcutaneously-implanted MX-1 human mammary tumor xenografts in mice
Source text: A total of 120 tumor bearing mice were divided into twelve groups of 10 mice. […] All treatments were initiated 10 days after the implantation of tumor xenografts.
Six-weeks-old female, athymic NCr-nu/nu mice were purchased from Charles River Laboratories (Wilmington, Mass.) and acclimated in the laboratories for 10 days prior to experimentation. The animals were housed in microisolator cages, five per cage with a 12-hour light/dark cycle. The animals received filtered Birmingham municipal water and sterilized Teklad Global 16% protein rodent diet (2016S, Harlan Laboratories, Inc.) ad libitum. No consumable enrichment was provided. Enrich-n'Nest paper rolls (the Andersons Lab Bedding Products, Maumee, Ohio) were provided in each cage as manipulanda. Cages were changed twice weekly. The animals were observed daily and clinical signs were noted.
Each mouse was implanted SC near the right flank with a 30-40 mg fragment of MX-1 human mammary tumor from an in vivo passage using a 13-gauge needle. The day of tumor fragments implantation was designated as Day 0. Individual tumors of 120 animals grew to 100-245 mg in weight (100-245 mm^3 in size) on the day of treatment initiation, Day 10 after tumor fragments implantation. Those animals selected with tumors in the proper size range were assigned to twelve treatment groups so that the mean and median tumor weights in all groups on the first day of treatment were as close to each other as possible (mean tumor weights ranged from 160 to 168 mg, median tumor weights were 153 or 162 mg).
The solution was allowed to stand for 2-3 minutes to make sure it was fully in solution. […] On each day of treatment, an aliquot was thawed at room temperature and diluted with saline to yield a concentration of 0.06 mg/mL in 2.5% DMSO/97.5% saline. Lower concentrations of 0.04 and 0.02 mg/mL were achieved by dilution of a portion of the 0.06 mg/mL solution with 2.5% DMSO/97.5% saline. Bottles with dosing solutions were stored at 4° C. between formulation and administration.
0.5% MC/0.2% T80 in WFI was formulated and the solution was stored at 4° C. […] A portion of the 4 mg/mL cloudy solution was diluted with 0.5% MC/0.2% T80 in WFI to 2 mg/mL. Bottles with dosing solutions were stored at 4° C. between formulation and administration.
The experiment consisted of a vehicles-treated control group and eleven drug-treated groups of 10 mice per group for a total of 120 mice on the first day of treatment. All treatments were initiated on Day 10. […] On the days when both compounds were administered, E7389 was administered to all combination groups first [−(0)]
Animals were observed once daily for mortality and morbidity. The SC tumors were measured and the animals were weighed twice weekly starting with the first day of treatment, Day 10 after tumor fragment implantation.

[3] = tested on: twenty-five cell line panel; assay: Anti-proliferation assay (ATPLite, growth inhibition), single agent dose response; type: cell-based; details: median across cell lines reaching >50% inhibition; 72 h; three-fold, ten-point dose titration
Procedure: Cells are thawed from a liquid nitrogen preserved state. […] The calculation for synergy score is provided below. […] This formula is derived from the Growth Inhibition calculation used in the National Cancer Institute's NCI-60 high throughput screen. All single agent and combination data analysis are performed in growth inhibition. Eribulin had varying activity across a twenty-five cell line panel. Single agent activity was assessed using a three-fold, ten-point dose titration. Twenty-three cell lines were evaluated in 1536-well plate format. Two additional cell lines were evaluated in 384-well plate format.

[4] = E7389 0.2 mg/kg/injection IV Q4Dx4 (Group 4)
[5] = E7389 0.4 mg/kg/injection IV Q4Dx4 (Group 3)
[6] = everolimus 20 mg/kg/dose PO Q1Dx16 (Group 6)
[7] = everolimus 40 mg/kg/dose PO Q1Dx16 (Group 5)

C=C1C[C@@H]2CC[C@@]34C[C@H]5O[C@H]6[C@@H](O3)[C@H]3O[C@H](CC[C@@H]3O[C@H]6[C@H]5O4)CC(=O)C[C@@H]3[C@@H](OC)[C@@H](C[C@H](O)CN)O[C@H]3C[C@H]3O[C@@H](CC[C@@H]1O2)C[C@@H](C)C3=C [E7389, II, 15:18,21:24,28-triepoxy-7,9-ethano-12,15-methano-9H,15H-furo[3,2-i]furo[2′,3′:5,6]pyrano[4,3-b][1,4]dioxacyclopentacosin-5(4H)-one, 2-[(2S)-3-amino-2-hydroxypropyl]hexacosahydro-3-methoxy-26-methyl-20,27-bis(methylene)-, (2R,3R,3aS,7R,8aS,9S,10aR,11S,12R,13aR,13bS,15S,18S,21S,24S,26R,28R,29aS)-methanesulfonate (salt)]
tolerability / deaths ([1]; E7389 0.6, 0.4 and 0.2 mg/kg/injection IV Q4Dx4 (Groups 2-4)): tolerated without treatment-related deaths | maximum tolerated dose (MTD) ([1]; E7389 IV Q4Dx4, doses up to 0.6 mg/kg/injection): not reached | dryness of the skin ([1]; mouse, in vivo): not noted | mean body weight loss ([1]; mouse, in vivo, iv, 0.2 mg/kg): did not result in mean body weight loss | maximum mean body weight loss ([1]; mouse, in vivo, iv, 0.4 mg/kg): 1% | maximum mean body weight loss ([1]; mouse, in vivo, iv, 0.6 mg/kg): 1% | T/C value on Day 34 (median tumor weight) [2, 4]: 51% | median tumor growth delay (T-C) [2, 4]: > 6.3 days | T/C value on Day 34 (median tumor weight) [2, 5]: 13% | median tumor growth delay (T-C) [2, 5]: 17.7 days | number of tumor-free survivors on day of study termination (Day 62) ([2]; E7389 0.6 mg/kg/injection (Group 2)): five | number of complete tumor regressions ([2]; E7389 0.6 mg/kg/injection (Group 2), out of ten animals): six | T/C value on Day 34 (median tumor weight) ([2]; E7389 0.6 mg/kg/injection IV Q4Dx4 (Group 2)): 0% | median tumor growth delay (T-C) ([2]; E7389 0.6 mg/kg/injection IV Q4Dx4 (Group 2), time to four tumor mass doublings): > 33.8 days | inhibition of the growth of the MX-1 mammary tumor xenografts ([2]; E7389 0.6, 0.4 and 0.2 mg/kg/injection IV): very effective

C=C1C[C@@H]2CC[C@@]34C[C@H]5O[C@H]6[C@@H](O3)[C@H]3O[C@H](CC[C@@H]3O[C@H]6[C@H]5O4)CC(=O)C[C@@H]3[C@@H](OC)[C@@H](C[C@H](O)CN)O[C@H]3C[C@H]3O[C@@H](CC[C@@H]1O2)C[C@@H](C)C3=C [Eribulin]
GI50 [3]: 0.51 nM

CO[C@H]1C[C@@H]2CC[C@@H](C)[C@@](O)(O2)C(=O)C(=O)N2CCCC[C@H]2C(=O)O[C@H]([C@H](C)C[C@@H]2CC[C@@H](OCCO)[C@H](OC)C2)CC(=O)[C@H](C)/C=C(\C)[C@@H](O)[C@@H](OC)C(=O)[C@H](C)C[C@H](C)/C=C/C=C/C=C/1C [everolimus]
maximum tolerated dose (MTD) ([1]; mouse, in vivo, po): not reached | T/C value on Day 34 (median tumor weight) [2, 6]: 74% | median tumor growth delay (T-C) [2, 6]: 4.0 days | T/C value on Day 34 (median tumor weight) [2, 7]: 46% | median tumor growth delay (T-C) [2, 7]: 6.1 days | inhibition of the growth of the MX-1 mammary tumor xenografts ([2]; everolimus 40 and 20 mg/kg/dose PO): minimally effective
